One assay concerns the target T1, KRas-G12D (Homo sapiens, UniProt P01116, G12D).
T1 construct: insert the HiBiT tag onto the N-terminus of one or more of the endogenous KRas alleles; host or cells: AsPC-1 HiBiT-KRasG12D knock-in clone (one tagged allele, two untagged KRasG12D alleles)
Description: HiBiT Degradation Assay (G12D), AsPC-1 HiBiT-KRasG12D cells, 24 hr. Type of assay: cell-based. To be noted: for Dmax: ASPC1, AsPC-1 cells, maximum degradation observed; for DC50: AsPC-1 cells. Put shortly: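 AsPC-1 cells with CRISPR N-terminal HiBiT knock-in on one endogenous KRasG12D allele, treated 24 hr at 37° C with compound titrations in 0.5% DMSO. Lytic HiBiT luminescence normalized to DMSO, fitted to a 4-parameter model for DC50 and Dmax. Parallel alamar blue (4 hr) checked viability.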
A general note: HiBiT is a short tag that completes a luciferase, so light tracks the accessible tagged protein.

In another assay the test system is GP2d. Description: Tumor growth inhibition in vivo, GP2d colorectal cancer model. More on the design: species or system CB17 SCID female mice. To be noted: dosed intravenously (IV). On the procedure:
(§1) The effect on tumor growth of treatment with Compound 69 and 102 was assessed in the GP2d (95090714 Millipore Sigma, USA) and LS180 (CL-187 ATCC, USA) colorectal cancer models, and the AsPC-1 (CRL-1682 ATCC, USA), SW1990 (CRL-2172, ATCC, USA), HPAC (CRL-2119 ATCC, USA), and Panc04.03 (CRL-2555 ATCC, USA) pancreatic cancer models. Briefly, cells were grown in HYPER flasks (Corning) and harvested and prepared for implant by preparing a suspension with a final concentration of 25×10^6 cells/ml in 50% matrigel (Corning) and 50% phenol red-free media (Gibco DMEM or RPMI-1640, depending on cell line). For Panc04.03, 6-7 week NOD/SCID female mice (GemPharmatech Co. Ltd) were inoculated with 200 μl of the cell suspension ([…]) subcutaneously on the left flank under sterile conditions. For all other cell lines, 6-8 weeks old CB17 SCID female mice (Charles River Laboratories) were inoculated with 200 μl of the cell suspension (5 million cells/mouse) subcutaneously on the left flank under sterile conditions. Studies were initiated when tumors reached an average of approximately 200 mm^3. […] Tumor growth inhibition (TGI) was calculated using the formula % TGI=(VC−VT)/(VC−V0)×100 where VC, VT are the average of control and treated groups at the end of the study, and V0 is the average tumor volume at randomization.

In the next assay the test system is LS180. Description: Tumor growth inhibition in vivo, LS180 colorectal cancer model. Details: species or system CB17 SCID female mice. The following applies: dosed intravenously (IV). On the procedure:
as §1

Another assay concerns AsPC-1. Description: Tumor growth inhibition in vivo, AsPC-1 pancreatic cancer model. Details: species or system CB17 SCID female mice. The following applies: AsPC-1 model, dosed intravenously (IV). Here is the method:
as §1

A further assay has as its system SW1990. Description: Tumor growth inhibition in vivo, SW1990 pancreatic cancer model. More on the design: species or system CB17 SCID female mice. The following applies: dosed intravenously (IV). On the procedure: as §1
A further assay concerns HPAC. Description: Tumor growth inhibition in vivo, HPAC pancreatic cancer model. Details: species or system CB17 SCID female mice. The following applies: dosed intravenously (IV). Here is the method:
as §1

The subject of a further assay is Panc04.03. Description: Tumor growth inhibition in vivo, Panc04.03 pancreatic cancer model. Details: species or system NOD/SCID female mice. The following applies: Panc04.03 model, dosed intravenously (IV). Here is the method:
as §1

This is an account of results in patent publication US12448399B2, “Cereblon-based KRAS degrading PROTACs and uses related thereto” (Arvinas Operations, Inc., priority 2023, dated 2025).

SMILES strings stand for the structures. A value given as a limit tells only on which side of the number the result lay.

T1 sequence (P01116 1-188 isoform P01116-2 G12D): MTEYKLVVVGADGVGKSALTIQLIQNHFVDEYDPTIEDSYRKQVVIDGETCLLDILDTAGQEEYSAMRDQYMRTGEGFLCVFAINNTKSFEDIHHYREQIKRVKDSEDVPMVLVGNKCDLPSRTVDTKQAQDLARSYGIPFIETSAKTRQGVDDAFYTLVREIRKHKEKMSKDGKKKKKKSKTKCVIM

The Dmax is the greatest extent of degradation seen. Usually DC50 stands for the concentration at which degradation of the target reaches its halfway point. The low end stands for a more potent degrader, the high end for a less potent degrader. In the case of `C#Cc1c(F)ccc2cc(O)cc(-c3ncc4c(N5CC6CCC(C5)N6)nc(OCCN5CCC(CC6CCN(CC7CCN(c8ccc9c(c8F)CN(C8CCC(=O)NC8=O)C9=O)CC7)CC6)CC5)nc4c3F)c12` (centres unmarked) [Compound 69, 3-[5-[4-[[4-[[1-[2-[4-(3,8-diazabicyclo[3.2.1]octan-3-yl)-7-(8-ethynyl-7-fluoro-3-hydroxy-1-naphthyl)-8-fluoro-pyrido[4,3-d]pyrimidin-2-yl]oxyethyl]-4-piperidyl]methyl]-1-piperidyl]methyl]-1-piperidyl]-4-fluoro-1-oxo-isoindolin-2-yl]piperidine-2,6-dione], the greatest degradation seen (Dmax) at KRas-G12D is above 70%. The DC50 at KRas-G12D was below 5.1 µM. The “Tumor growth inhibition (TGI)” value with GP2d, with LS180, in the assay with SW1990, in the assay with HPAC and in the assay on Panc04.03 was “robust TGI” in each case. In addition, in the assay on AsPC-1, the Tumor growth response entry was “More moderate response”.
The term TGI denotes how far tumour growth fell short of that in controls. A lower TGI goes with a weaker effect on the tumour. As for `C#Cc1c(F)ccc2cc(O)cc(-c3ncc4c(N5CC6CCC(C5)N6)nc(OCCN5CCC(CC6CCN(CC7CCN(c8ccc9c(c8)n(C)c(=O)n9C8CCC(=O)NC8=O)CC7)CC6)CC5)nc4c3F)c12` (centres unmarked) [Compound 102, 3-[5-[4-[[4-[[1-[2-[4-(3,8-diazabicyclo[3.2.1]octan-3-yl)-7-(8-ethynyl-7-fluoro-3-hydroxy-1-naphthyl)-8-fluoro-pyrido[4,3-d]pyrimidin-2-yl]oxyethyl]-4-piperidyl]methyl]-1-piperidyl]methyl]-1-piperidyl]-3-methyl-2-oxo-benzimidazol-1-yl]piperidine-2,6-dione], on KRas-G12D, the Dmax is above 70%. The DC50 at KRas-G12D was below 5.1 µM. The “Tumor growth inhibition (TGI)” value in the assay with GP2d, in the assay with LS180, with SW1990, in the assay with HPAC and in the assay on Panc04.03 was “robust TGI” each time. Moreover, in the assay with AsPC-1, the TGI stood at 100%.
At KRas-G12D, `C#Cc1c(F)ccc2cc(O)cc(-c3ncc4c(N5CC6CCC(C5)N6)nc(N5CC[C@@H](N6CCC(CC7CCN(c8ccc9c(c8)n(C)c(=O)n9C8CCC(=O)NC8=O)CC7)CC6)C5)nc4c3F)c12` (stereo partly drawn) [Compound 236, 3-[5-[4-[[1-[(3R)-1-[4-(3,8-diazabicyclo[3.2.1]octan-3-yl)-7-(8-ethynyl-7-fluoro-3-hydroxy-1-naphthyl)-8-fluoro-pyrido[4,3-d]pyrimidin-2-yl]pyrrolidin-3-yl]-4-piperidyl]methyl]-1-piperidyl]-3-methyl-2-oxo-benzimidazol-1-yl]piperidine-2,6-dione] yielded a Dmax above 70% and a DC50 below 5.1 µM.
As for `C#Cc1c(F)ccc2cc(O)cc(-c3ncc4c(N5CC6CCC(C5)N6)nc(CCCN5CCC(CC6CCN(CC7CCN(c8ccc9c(c8)n(C)c(=O)n9C8CCC(=O)NC8=O)CC7)CC6)CC5)nc4c3F)c12` (centres unmarked) [Compound 230, 3-[5-[4-[[4-[[1-[3-[4-(3,8-diazabicyclo[3.2.1]octan-3-yl)-7-(8-ethynyl-7-fluoro-3-hydroxy-1-naphthyl)-8-fluoro-pyrido[4,3-d]pyrimidin-2-yl]propyl]-4-piperidyl]methyl]-1-piperidyl]methyl]-1-piperidyl]-3-methyl-2-oxo-benzimidazol-1-yl]piperidine-2,6-dione], the DC50 at KRas-G12D was below 5.1 µM.
Still for that read-out and setting: as for `CCc1cccc2cc(O)cc(-c3ncc4c(N5CC6CCC(C5)N6)nc(OCCN5CCC(CC6CCN(CC7CCN(c8cccc9c8C(=O)N(C8CCC(=O)NC8=O)C9=O)CC7)CC6)CC5)nc4c3F)c12` (centres unmarked) [Compound 57, 4-[4-[[4-[[1-[2-[4-(3,8-diazabicyclo[3.2.1]octan-3-yl)-7-(8-ethyl-3-hydroxy-1-naphthyl)-8-fluoro-pyrido[4,3-d]pyrimidin-2-yl]oxyethyl]-4-piperidyl]methyl]-1-piperidyl]methyl]-1-piperidyl]-2-(2,6-dioxo-3-piperidyl)isoindoline-1,3-dione], the figure is 0.1 to 5.25 µM.
